Experimental data: patent publication US20060189634A1, “Fungicide mixtures” (priority 2003, published 2006)

System: Plasmopara viticola
Experiment: Activity against peronospora of grapevines caused by Plasmopara viticola (protective spray on potted vines)
Type: in vivo
Conditions: individual active compound, grapevine leaves cv. Müller-Thurgau, untreated control 81% infection
Protocol: The active compounds, separately or jointly, were prepared as a stock solution comprising 0.25% by weight of active compound in acetone or DMSO. 1% by weight of the emulsifier Uniperol® EL (wetting agent having emulsifying and dispersant action based on ethoxylated alkylphenols) was added to this solution, and the mixture was diluted with water to the desired concentration.
Use example—Activity against peronospora of grapevines caused by Plasmopara viticola
Leaves of potted vines of the cultivar “Müller-Thurgau” were sprayed to runoff point with an aqueous suspension having the concentration of active compound stated below. The next day, the undersides of the leaves were inoculated with an aqueous zoospore suspension of Plasmopara viticola. The grapevines were then initially placed in a water-vapor-saturated chamber at 24° C. for 48 hours and then in a greenhouse at 20-30° C. for 5 days. After this period of time, the plants were again placed in a humid chamber for 16 hours to promote sporangiophore eruption. The extent of the development of the disease on the undersides of the leaves was then determined visually.
The visually determined percentages of infected leaf areas were converted into efficacies in % of the untreated control:
The efficacy (E) is calculated as follows using Abbot's formula: E=(1−α/β)−100 α corresponds to the fungicidal infection of the treated plants in % and β corresponds to the fungicidal infection of the untreated (control) plants in %
An efficacy of 0 means that the infection level of the treated plants corresponds to that of the untreated control plants; an efficacy of 100 means that the treated plants were not infected.
The expected efficacies of mixtures of active compounds were determined using Colby's formula (Colby, S. R. “Calculating synergistic and antagonistic responses of herbicide combinations”, Weeds, 15, 20-22, 1967) and compared with the observed efficacies.
Colby's formula: E=x+y−x·y/100 E expected efficacy, expressed in % of the untreated control, when using the mixture of the active compounds A and B at the concentrations a and b x efficacy, expressed in % of the untreated control, when using the active compound A at the concentration a y efficacy, expressed in % of the untreated control, when using the active compound B at the concentration b

Compound	Efficacy in % of the untreated control (4 ppm in the spray liquor)	Efficacy in % of the untreated control (1 ppm in the spray liquor)	Efficacy in % of the untreated control (16 ppm in the spray liquor)
C[C@H](Nc1c(-c2c(F)cc(F)cc2F)c(Cl)nc2ncnn12)C(F)(F)F [Comparison B]	13%		
N#Cc1sc2c(=O)c3ccccc3c(=O)c=2sc1C#N [II (dithianon), 5,10-dioxo-5,10-dihydronaphtho[2,3-b][1,4]dithiine-2,3-dicarbonitrile]	13%	1%	13%
CC1CCN(c2c(-c3c(F)cccc3Cl)c(Cl)nc3ncnn23)CC1 [Comparison A]	13%		
CC1CCN(c2c(-c3c(F)cc(F)cc3F)c(Cl)nc3ncnn23)CC1 [I, 5-chloro-7-(4-methylpiperidin-1-yl)-6-(2,4,6-trifluorophenyl)-[1,2,4]triazolo[1,5-a]pyrimidine]	51%		
